Data reported in paper PMC10349072, “Distinct evolution of type I glutamine synthetase in Plasmodium and its species-specific requirement” (Nature Communications, 2023).

Columns and labels:
[1] = target: T1, E. coli glutamine synthetase (rE. coli GS) (Escherichia coli, UniProt P0A9C5); assay: feedback inhibition enzyme assay at […]; assay type: biochemical
T1 construct: gene glnA; recombinant with 6xHis tag
T1 sequence (P0A9C5 2-469): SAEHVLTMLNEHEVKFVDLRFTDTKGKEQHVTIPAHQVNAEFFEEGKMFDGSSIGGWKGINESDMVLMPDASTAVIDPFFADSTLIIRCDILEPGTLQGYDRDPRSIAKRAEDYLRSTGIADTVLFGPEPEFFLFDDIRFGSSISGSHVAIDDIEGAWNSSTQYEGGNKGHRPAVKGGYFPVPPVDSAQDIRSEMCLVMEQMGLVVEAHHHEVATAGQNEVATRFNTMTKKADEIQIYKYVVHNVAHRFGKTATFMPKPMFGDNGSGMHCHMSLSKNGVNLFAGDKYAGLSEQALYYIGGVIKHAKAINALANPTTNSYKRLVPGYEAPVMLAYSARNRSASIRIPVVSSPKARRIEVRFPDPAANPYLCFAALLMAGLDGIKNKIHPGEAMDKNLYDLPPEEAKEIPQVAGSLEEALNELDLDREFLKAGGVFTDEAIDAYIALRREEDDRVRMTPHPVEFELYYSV

[2] = target: T2, Plasmodium falciparum glutamine synthetase lacking first peptide insert (ΔI1rPfGS) (Plasmodium falciparum, UniProt C0H551, DEL174-196); assay type: biochemical
T2 construct: gene PF3D7_0922600; recombinant, 6xHis tag, first peptide insert (amino acids 174–196) deleted

[3] = target: T3, Plasmodium berghei glutamine synthetase (rPbGS) (Plasmodium berghei, UniProt A0A509ANX1); assay: GS enzyme assay (Pi release/HPLC) with pre-incubation with ATP and MgCl2; kinetic Ki; assay type: biochemical
T3 construct: gene PBANKA_0823500; recombinant with N-terminal 6xHis tag, expressed in E. coli
T3 sequence (A0A509ANX1 1-553): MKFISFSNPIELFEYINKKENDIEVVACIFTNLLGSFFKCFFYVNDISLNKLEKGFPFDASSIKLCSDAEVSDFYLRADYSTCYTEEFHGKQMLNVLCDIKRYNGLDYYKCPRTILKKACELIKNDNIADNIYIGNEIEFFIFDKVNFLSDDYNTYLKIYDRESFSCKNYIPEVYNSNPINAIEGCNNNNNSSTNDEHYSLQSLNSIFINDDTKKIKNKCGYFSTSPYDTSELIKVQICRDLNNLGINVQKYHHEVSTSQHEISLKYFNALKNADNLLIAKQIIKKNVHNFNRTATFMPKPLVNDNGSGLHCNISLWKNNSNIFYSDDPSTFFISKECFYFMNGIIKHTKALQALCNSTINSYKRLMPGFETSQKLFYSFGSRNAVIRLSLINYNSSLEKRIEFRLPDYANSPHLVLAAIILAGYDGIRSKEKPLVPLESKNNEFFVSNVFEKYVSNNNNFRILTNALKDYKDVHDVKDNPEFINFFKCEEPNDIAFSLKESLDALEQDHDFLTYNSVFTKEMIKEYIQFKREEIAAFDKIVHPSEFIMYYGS

[4] = target: T4, Plasmodium falciparum glutamine synthetase (rPfGS) (Plasmodium falciparum, UniProt C0H551); assay: biochemical
T4 construct: gene PF3D7_0922600
T4 sequence (C0H551 1-543): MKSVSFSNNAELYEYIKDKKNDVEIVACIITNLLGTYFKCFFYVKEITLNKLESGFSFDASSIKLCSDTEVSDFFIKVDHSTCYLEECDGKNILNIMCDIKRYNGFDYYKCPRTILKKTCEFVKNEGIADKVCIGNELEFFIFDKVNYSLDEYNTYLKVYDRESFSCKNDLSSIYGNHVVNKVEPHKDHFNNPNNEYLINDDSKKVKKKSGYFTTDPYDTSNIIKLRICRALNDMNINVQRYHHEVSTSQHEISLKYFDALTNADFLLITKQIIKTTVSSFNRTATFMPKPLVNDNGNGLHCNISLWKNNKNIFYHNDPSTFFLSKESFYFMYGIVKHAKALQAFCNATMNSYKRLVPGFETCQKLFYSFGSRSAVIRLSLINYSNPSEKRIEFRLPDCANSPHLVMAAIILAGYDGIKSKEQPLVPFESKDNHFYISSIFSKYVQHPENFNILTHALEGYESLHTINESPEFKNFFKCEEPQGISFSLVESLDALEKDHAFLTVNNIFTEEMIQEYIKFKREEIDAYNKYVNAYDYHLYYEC

SMILES	% [1]	GS enzyme assay, percent activity vs control [2]	Ki [3]	Ki [4]
Nc1ncnc2c1ncn2[C@@H]1O[C@H](COP(=O)(O)O)[C@@H](O)[C@H]1O [AMP, adenosine monophosphate]	30–40% inhibition at 5 mM			
CS(=N)(=O)CC[C@H](N)C(=O)O (stereo partly drawn) [MSO, L-Methionine sulfoximine]		ΔI1rPfGS behaved like rPfGS in terms of specific activity (Fig. 3b), inhibition by MSO and PPT (Fig. 3c)	5.44 ± 1.07 µM	
CP(=O)(O)CC[C@H](N)C(=O)O [PPT, Phosphinothricin]		ΔI1rPfGS behaved like rPfGS in terms of specific activity (Fig. 3b), inhibition by MSO and PPT (Fig. 3c)	8.07 ± 3.31 µM	2.31 ± 1.1 µM
C[C@H](N)C(=O)O [alanine]	30–40% inhibition at 5 mM			
